# Measurements: patent US12102690B2, “Preparation method and application of biomimetic nano-protectant for detoxifying dox-induced cardiac and systemic toxicity” (priority 2021, dated 2024)
# Tests used:
# [1] = Change in weight of tumor-bearing B6 rats; assay type: in vivo; details: Day0 to Day24, TC1 tumor-bearing B6 rats
# Description: (§1) When the tumor volume reached 70-80 mm^3, the NPs+DOX group, the DOX group alone and the NC group were performed respectively; and then changes in size of tumor tissues and the changes in weight of B6 rats were observed and measured from Day0 to Day24. […] However, the volume of tumor tissues in the NC group increases to about 200 times of the initial volume on Day24 (FIG. 20A). […] Meanwhile, due to the rapid growth of tumor tissues in the NC group, the weight of NC group is increased greatly (FIG. 20B).
# [2] = tested on: TC1 cells subcutaneous transplanted tumor model of cervical cancer; test: Tumor inhibition in subcutaneous transplanted tumor model of cervical cancer; assay type: in vivo; details: Day24, TC1 tumor-bearing B6 rats
# Description: as §1
# H9C2 myocardial cells = test: Survival rate of myocardial cells with CCK-8 reagent after IC50 dose of DOX; assay type: cell-based, rat; details: DOX group alone, 24 h
# Description: Different doses of biomimetic nano-protectant DNA&Pro@RBCM-PCM/KALA were added into H9C2 myocardial cells for incubation for 4 h; then, IC50 (50% Inhibitory Concentration) dose of DOX was added; the survival rate of H9C2 myocardial cells was detected with a CCK-8 reagent after 24 h; and a DOX group alone (with a DNA concentration of 0) and a treatment-free NC group (Negative Control) were set as experimental control groups. […] To further describe the protection mechanism of the biomimetic nano-protectant PCM/KALA-RBCM@DNA&Pro, in the invention, a dose of the biomimetic nano-protectant PCM/KALA-RBCM@DNA&Pr (NPs) is determined for protecting the damage of the IC50 dose of DOX to the H9C2 myocardial cells, while three important apoptosis pathway signal molecules (including Bax, Bcl2 and Caspase-3) are selected for Western Blot (WB) test (see FIG. 12).
structure (smiles),measurement,setting,value
"COc1cccc2c1C(=O)c1c(O)c3c(c(O)c1C2=O)C[C@@](O)(C(=O)CO)C[C@@H]3O[C@H]1C[C@H](N)[C@H](O)[C@H](C)O1 [DOX, doxorubicin]",change in weight of B6 rats,[1],sudden loss of weight
same,tumor volume at the end of Day24 relative to the initial volume,[2],about 15 times of the initial volume
same,survival rate of H9C2 cells,H9C2 myocardial cells,about 50%
